Experimental data published in patent publication US20050048093A1, “Methods and reagents for the control of infestations of parasites” (priority 2001, published 2005).
Where “and” joins values, the source holds several entries; their conditions need not be identical. Equal entries are not always repeated.

Tests used:
Assay type in all cases: in vivo
[1] = system: Varroa destructor; assay: Inhibition of the reproduction of V. destructor in artificial (gelatine) cells; details: for Inhibitory activity in respect of varroa reproduction / Number of offspring per varroa female in the artificial cells treated (Mean) / Number of offspring per varroa female in the artificial cells treated: Example 5; for Inhibitory activity in respect of varroa reproduction: artificial cells, result in words; for Number of offspring per varroa female in the artificial cells treated (Mean) / Number of offspring per varroa female in the artificial cells treated: same procedure as Example 1; for Number of offspring per varroa female in the artificial cells treated (Mean): mean of three replications; for Number of offspring per varroa female in the artificial cells treated: single replications 1-3
Experimental: In Example 1, a chemical composition is made up of a solution of heptadecene in hexane, with a double bond in position 8 and cis configuration ([…]). The cis-8-heptadecene in a solution of hexane causes a reduction in reproduction, ie a reduction in the number of offspring produced by the Varroa destructor mite, raised in a laboratory environment, on bee larvae in gelatine cells. For verification of the activity of cis-8-C17H34, two groups of gelatine cells were prepared, with a diameter of 6.5 mm. In each of the two cells of the first group, 10 […] 100 ng of cis-8-heptadecene was deposited. This group was defined as the treated group. In the cells of the second group, 10 […] active compound was deposited. This group was defined as the control group. The substances were deposited into each cell using a micropipette. The solvent was left to evaporate and then one varroa and one bee larva from natural, just-capped cells were introduced into each cell in each of the groups. The varroa was thus cultivated on the bee larva, during the metamorphosis of the larva, as happens in nature. Cultivation took place at 35° C. and 75% relative humidity. After ten days Oust before the bee reached its adult state), the cells were opened and inspected by microscope and the offspring produced by each varroa female were counted. The experiment described above was conducted four times; in total, approximately 80 cells were used per group. Following the same procedure used in Example 1, a chemical composition made up of a solution of a heptadecene isomer as in Example 1, in this case the isomer with a double bond in position 6 (cis-6-C17H34), and a second composition containing a solution of cis-8-heptadecene (cis-8-C17H34) were applied.

[2] = system: Varroa destructor; assay: Inhibition of the reproduction of V. destructor in natural cells; details: Example 2, 10 days in hive
Experimental: Example 2 was conducted in the same way as Example 1, except for the fact that the V. destructor mite was cultivated on bee larvae in natural cells from a beehive. In this example, too, the effect of 8-heptadecene on the reduction in the mean number of offspring produced by a female V. destructor in cells of natural honeycomb, kept in the hive, was verified.
For verification of the activity of cis-8-C17H34, two groups of natural cells were prepared. In the cells of the first group, referred to as the treated group, 1 μl of acetone containing 100 ng of cis-8-heptadecene was deposited. In the cells of the second group, the control group, 1 μl of the solvent alone, ie acetone, was deposited. The natural cells were cells just capped with honeycomb taken from infested hives and the product was deposited via injection of the solution using a microsyringe through the cell cap. Following treatment, the honeycomb was returned to the hive from which it was taken. After ten days, the honeycombs used for the experiment were brought to the laboratory; both the treated and control cells were opened and inspected. In the infested cells, the mean number of offspring produced by each varroa was counted. The experiment was replicated six times: in total, approximately 140 infested cells were examined for each group.

[3] = system: Varroa destructor; assay: Inhibition of the reproduction of V. destructor via dispensing of cis-8-heptadecene in bee colonies; details: for Number of offspring of V. destructor inside the capped cells of Group B (10 μg) / Number of offspring of V. destructor inside the capped cells of Group A (100 μg): changed weekly
Experimental: In Example 3, ten nuclei were prepared, ie bee colonies with a reduced number of individuals, in the order of several thousand. Each nucleus was placed in a hive with dimensions smaller than those of a standard hive. These nuclei were divided into three groups—A and B, each with three nuclei, and C, with four nuclei.
Into each hive, a dispensing mechanism comprising a nylon grid, with a 100 μm mesh, square and with a side measurement of 10 cm, supported by a sheet of aluminium, was introduced. Solutions of cis-8-heptadecene in various concentrations in 100 μl of hexane were placed on each of these grids. The solvent was left to evaporate before each test. Group A was treated with 100 μg of cis-8-C17H34 in 100 μl of hexane, Group B with 10 μg of cis-8-C17H34 in […], and Group C with 100 μl of hexane without the addition of cis-8-C17H34 (control grou). The dispensing mchanism was changed in each hive each week; and treatment lasted for three weeks. At the end of the test, the number of V. destructor individuals present on the adult bees and in the brood cells was determined. The brood cells were removed from the hives, opened and inspected. Finally, the V. destructor individuals killed by the treatment were counted. The numbers of offspring of the V. destructor individuals present in the brood cells were calculated, separately for each developmental stage of the bees, and specifically pink-eyed pupae (pp), black-eyed pupae (pd) and pigmented pupae and adult bees (ppd).

SMILES	Inhibitory activity in respect of varroa reproduction [1]	Number of offspring per varroa female in the artificial cells treated (Mean) [1]	Number of offspring per varroa female in the artificial cells treated ([1]; listed as cis-6-C17H34)	Number of offspring per varroa female in the natural cells treated with cis-8-heptadecene ([2]; 100 ng in 1 μl acetone per natural capped cell, single replications 1-6)	Number of offspring per varroa female in the natural cells treated with cis-8-heptadecene (Mean) ([2]; 100 ng per natural capped cell, mean of six replications)	Number of offspring per varroa female in the artificial cells treated with cis-8-heptadecene (Mean) ([1]; Example 1, 100 ng per gelatine cell, 10 days, mean of four replications)	Number of offspring per varroa female in the artificial cells treated ([1]; listed as cis-8-C17H34)	Number of offspring of V. destructor inside the capped cells of Group B (10 μg) ([3]; 10 μg per dispenser, three weeks, PD: black-eyed pupae)	Number of offspring of V. destructor inside the capped cells of Group B (10 μg) ([3]; 10 μg per dispenser, three weeks, PDD [sic]: pigmented pupae et adults)	Number of offspring of V. destructor inside the capped cells of Group B (10 μg) ([3]; 10 μg per dispenser, three weeks, PP: pink-eyed pupae)	Percentage distribution of V. destructor in Group B (10 μg): Varroa in the reproductive phase ([3]; 10 μg per dispenser, three weeks, adult female varroa in brood cells) [Percentage]	Percentage distribution of V. destructor in Group B (10 μg): Varroa in the phoretic phase ([3]; 10 μg per dispenser, three weeks, adult female varroa on adult bees) [Percentage]	Number of offspring of V. destructor inside the capped cells of Group A (100 μg) ([3]; 100 μg per dispenser, three weeks, PD: black-eyed pupae)	Number of offspring of V. destructor inside the capped cells of Group A (100 μg) ([3]; 100 μg per dispenser, three weeks, PDD [sic]: pigmented pupae et adults)	Number of offspring of V. destructor inside the capped cells of Group A (100 μg) ([3]; 100 μg per dispenser, three weeks, PP: pink-eyed pupae)	Percentage distribution of V. destructor in Group A (100 μg): Varroa in the reproductive phase ([3]; 100 μg per dispenser, three weeks, adult female varroa in brood cells) [Percentage]	Percentage distribution of V. destructor in Group A (100 μg): Varroa in the phoretic phase ([3]; 100 μg per dispenser, three weeks, adult female varroa on adult bees) [Percentage]	Reproduction of V. destructor in the cells of the hives ([3]; Groups A (100 μg) and B (10 μg), as from the black-eyed pupa stage (pd), result in words)
CCCCC/C=C\CCCCCCCCCC [cis-6-heptadecene]	demonstrated inhibitory activity	2.1	2.4 and 2.3 and 1.7															
CCCCCCC/C=C\CCCCCCCC [cis-8-heptadecene]	demonstrated inhibitory activity	1.9		3.2 and 2.5 and 3.6 and 3.1 and 3.7	3.2	1.7	2.0 and 1.5	2.65	3.20	2	60	40	2.63	3.29	2	50	50	reduction, albeit modest
